Measurements taken from PMC6554663, “Pharmaceutical Effects of Inhibiting the Soluble Epoxide Hydrolase in Canine Osteoarthritis” (Frontiers in Pharmacology, 2019).
≈ marks a conversion by molar mass, not a printed value. Where “and” joins values, the source holds several entries; their conditions need not be identical. Identical values can stand only once. Entries after “also recorded” stand apart in the source; their conditions may differ. Like-named read-outs stand apart in the source and are kept apart here.

How the values were obtained:
[1] = Solubility of sEHI; type: physicochemical
Experimental: […] The non-dissolved compounds were filtered through a 0.22 μm centrifuge filter at 40°C and the supernatant was further diluted 10 times with methanol. The samples were analyzed by LC/MS-MS.

[2] = Microsomal stability; type: in vitro ADME, dog; details: 60 min, 37°C
Experimental: Male and female dog liver microsomes (Xenotech) were diluted in potassium phosphate buffer (0.1M, pH 7.4), MgCl2 (3.15 mM), and sodium EDTA (1.05 mM) to a final protein concentration of 1 mg/mL. Compounds were added at 0.1 mM in methanol at 1% and microsomes were activated with 5% (v/v) NADPH regenerating system (100 μL sodium phosphate buffer (0.1M, pH 7.4), 50 μL, glucose-6-phosphate in sodium phosphate buffer (0.1M, pH 7.4), 50 μL NADP+ in sodium phosphate (0.1M, pH 7.4), and 50 μL of 100 Units/mL of […]). […] Compounds were incubated without microsomes or NADPH as negative controls.

[3] = PK analysis in satellite dogs; type: in vivo, dog; details: for half-life / AUC(0-t) / Cmax: whole blood; for AUC(0-t) / Cmax: po
Experimental: (§1) Eight satellite dogs (2 per each group) had whole blood collected for PK analysis on study Days […]. On Day 1, blood was collected immediately prior to dosing, and again at 0.25, 0.5, 1, 2, 4, 6, and 8 (±5 min) after dosing. On Day 2 through 4, blood was collected 0.5 h (±5 min) after dosing. On Day 5 blood was collected immediately prior to dosing, and again at 0.25, 0.5, 1, 2, 4, 6, 8 (±5 min), 24, 48, and 72 h (±30 min) post treatment. […] For all blood samples, a minimum of 3 mL of whole blood was collected from a suitable vein as per written and approved standard operating procedures. The blood was transferred to K2EDTA (spray dried) blood tube and inverted gently multiple times to ensure proper mixing of the blood and anticoagulant. On study Day 5, synovial fluid was collected by arthrocentesis immediately after the subject completed the questionnaire (approximately […] after dosing). Subjects were anesthetized as per written and approved Standard Operating Procedures. A minimum of 0.1 mL of synovial fluid was collected from each subject. Samples were frozen in an upright position and stored at -80°C ± 4°C before being shipped to UC Davis for analysis.
For PK analysis in the satellite group, individual parameters were calculated by fitting blood concentrations to a non-compartmental analysis using Kinetica software (Thermo Fisher Scientific version 5.1). Using the log-linear trapezoidal method, the area under the curve were calculated and were extrapolated to infinity using the last measured plasma concentration (Clast), defined as the timepoint collected 72 h after the last dose or 8 hr after the first dose on day 1, divided by the terminal slope (λz).

[4] = Blood and synovial fluid concentrations in treated osteoarthritic dogs; type: in vivo, dog; details: for Blood concentration D5 / Synovial fluid concentration D1 / Synovial fluid concentration D5: po, qd x 5, detected EC3039, individual dogs;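 for Synovial fluid concentration D1: synovial fluid also sampled on Day 1 after the pain assessment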
Experimental: as §1
Pain and function were assessed by a questionnaire answered by blinded technicians based on observation of study animals housed at InterVivo. The survey was adapted from the canine brief pain inventory (CBPI), which was developed based on clinical questionnaires in which owners score the function and pain level of their pets with existing pain conditions ([Brown et al., 2007]). Modifications to the questionnaire attempted to account for differences between owner pain evaluation of pets and pain evaluation of laboratory dogs by technical staff. For survey administration, blinded technicians attempted to elicit objective behavior-specific measures of function and pain level across a variety of normal canine behaviors (e.g., walking, trotting, galloping, rearing, and stair-climbing, etc.). For this, one technician was responsible for soliciting the relevant behaviors from a dog using encouragement and/or food rewards, while the evaluating technician scored function and observable pain using the modified CBPI questionnaire. Subjects were tested daily on Days -7 through -3, to develop baseline scores, and again on Days 1 through 5 administered 1.5 h after dosing. Dosing occurred in the morning, and observations were recorded 1.5 h after dosing, to limit time-of-day variability. Questions are listed in Supplementary Table S3. Animals in treatment groups had blood and synovial fluid collected ∼2 h after the last dose on day 5 (immediately following the study questionnaire) to confirm plasma concentrations in treated animals. Full pharmacokinetic assessments were collected from a satellite group of animals so as not to interfere with pain assessment.

[5] = tested on: aged beagle dogs with OA; assay: Tolerability, adverse events and body weight in the dog study; type: in vivo
Experimental: The study was conducted as a blinded, parallel matched-group design. Dogs were randomized into groups based on pretreatment pain scores and each group was randomly assigned a treatment. Prior to randomization, each dog was assessed for arthritis by radiograph to assess the severity of OA by presence of osteophytes, subchondral sclerosis or joint effusion each scored on a scale of 0 (least) to 3 (worst) for each of 12 joints. Severity of the radiograph score was included in the randomization protocol and distributed between the groups, and there were no statistical differences between the averages of each group. Individual radiograph scores can be found in Supplementary Table S2. […] Vehicle group consisted of 5 mL PEG300 in capsule. Concurrent medications were not allowed and not needed during the study.

[6] = female, beagle, dog, 1 mg/kg, dosed EC3039 1 mg/kg oral qd, female dog, Day 1, detected EC3039, blood
[7] = female, beagle, dog, 1 mg/kg, dosed EC3039 1 mg/kg oral qd, female dog, Day 5, detected EC3039, blood
[8] = female, beagle, dog, 5 mg/kg, dosed EC3039 5 mg/kg oral qd, female dog, Day 1, detected EC3039, blood
[9] = female, beagle, dog, 5 mg/kg, dosed EC3039 5 mg/kg oral qd, female dog, Day 5, detected EC3039, blood
[10] = male, beagle, dog, 1 mg/kg, dosed EC3039 1 mg/kg oral qd, male dog, Day 1, detected EC3039, blood
[11] = male, beagle, dog, 1 mg/kg, dosed EC3039 1 mg/kg oral qd, male dog, Day 5, detected EC3039, blood
[12] = male, beagle, dog, 5 mg/kg, dosed EC3039 5 mg/kg oral qd, male dog, Day 1, detected EC3039, blood

In the case of `CN(C(=O)N[C@H]1CC[C@H](Oc2ccc(C(=O)O)cc2)CC1)c1ccc(OC(F)(F)F)cc1` [EC3039, trans-4-{4-[3-methyl-3-(4-trifluoromethoxy-phenyl)-ureido]-cyclohexyloxy}-benzoic acid], the solubility ([1]; PEG300, organic solvent or mixture) is reported as 99 ± 1 mg/mL (≈ 219 mM), the solubility at 24 h ([1]; aqueous buffer, thermodynamic from solid, PBS pH 7.4, 40°C, 24 h) is reported as 0.13 ± 0.015 mg/mL (≈ 0.287 mM) and the “% Parent + NADPH” value ([2]; female dog liver microsomes) is reported as 85% and 85 ± 2%. The “% Parent − NADPH” value ([2]; female dog liver microsomes) was 93 ± 5%, the “% Parent − NADPH” value ([2]; male dog liver microsomes) was 97 ± 4% and the “EC3039 in blood of dogs administered EC1728” value ([3]; EC1728 at 1 mg/kg or 5 mg/kg) was “no detectable amounts”. For the same compound, the “blood concentrations relative to IC50 for sEH” value ([3]; all treatment groups, duration of the study) was “exceeded the IC50”, the “fold increase in AUC after fivefold increase in dose” value ([3]; beagle, dog, in vivo) was roughly 18 fold and the “fold increase in Cmax after fivefold increase in dose” value ([3]; beagle, dog, in vivo) was 30 to 40 fold. It also gave a half-life ([3]; beagle, dog, oral, satellite dogs, range over both compounds, Table 3, read-out: half-life) of 24 to 40 h, a half-life ([3]; beagle, dosed EC3039 1 mg/kg oral qd, female dog, Day 5, detected EC3039, blood, read-out: T1/2 (converted)) of 40 h and a half-life ([3]; beagle, dosed EC3039 1 mg/kg oral qd, male dog, Day 5, detected EC3039, blood, read-out: T1/2 (converted)) of 33 h. The half-life ([3]; beagle, dosed EC3039 5 mg/kg oral qd, female dog, Day 5, detected EC3039, blood, read-out: T1/2 (converted)) was 25 h, the half-life ([3]; beagle, dosed EC3039 5 mg/kg oral qd, male dog, Day 5, detected EC3039, blood, read-out: T1/2 (converted)) was 27 h and the “portion metabolized by demethylation to form EC1728” value ([3]; dogs dosed EC3039) was less than 10%. For the same compound, the AUC(0-t) [3, 6] was 3940 ng·h/mL, the Cmax [3, 6] was 568 ng/mL and the AUC(0-t) [3, 7] was 361000 ng·h/mL. The Cmax [3, 7] was 17300 ng/mL, the AUC(0-t) [3, 8] was 67200 ng·h/mL and the Cmax [3, 8] was 18000 ng/mL. It also gave an AUC(0-t) [3, 9] of 589000 ng·h/mL, a Cmax [3, 9] of 30900 ng/mL and an AUC(0-t) [3, 10] of 2490 ng·h/mL. It also gave a Cmax [3, 10] of 400 ng/mL, an AUC(0-t) [3, 11] of 72100 ng·h/mL and a Cmax [3, 11] of 2300 ng/mL. For the same compound, the AUC(0-t) [3, 12] was 46500 ng·h/mL, the Cmax [3, 12] was 16900 ng/mL and the Cmax ([3]; male, beagle, dog, 5 mg/kg, dosed EC3039 5 mg/kg oral qd, male dog, Day 5, detected EC3039, blood) was 32100 ng/mL. For the same compound, the “Blood concentration D5” value ([4]; dosed EC3039 1 mg/kg, 1 mg/kg) was 126 ng/mL and 176 ng/mL and 5340 ng/mL and 347 ng/mL and 346 ng/mL and 81 ng/mL and 408 ng/mL and 328 ng/mL, the “Synovial fluid concentration D1” value ([4]; dosed EC3039 1 mg/kg, 1 mg/kg) was 1220 ng/mL and 2710 ng/mL and 4100 ng/mL and 3350 ng/mL and 3100 ng/mL and 1390 ng/mL and 3430 ng/mL and 2100 ng/mL and the “Synovial fluid concentration D5” value ([4]; dosed EC3039 1 mg/kg, 1 mg/kg) was 1630 ng/mL and 1480 ng/mL and 11900 ng/mL and 1840 ng/mL and 1440 ng/mL and 586 ng/mL and 2190 ng/mL and 1930 ng/mL. The “Blood concentration D5” value ([4]; dosed EC3039 5 mg/kg, 5 mg/kg) was 859 ng/mL and 672 ng/mL and 5550 ng/mL and 6250 ng/mL and 722 ng/mL and 6190 ng/mL and 5650 ng/mL and 929 ng/mL, the “Synovial fluid concentration D1” value ([4]; dosed EC3039 5 mg/kg, 5 mg/kg) was 5850 ng/mL and 13570 ng/mL and 14290 ng/mL and 14240 ng/mL and 5220 ng/mL and 14300 ng/mL and 14700 ng/mL and 9520 ng/mL and the “Synovial fluid concentration D5” value ([4]; dosed EC3039 5 mg/kg, 5 mg/kg) was 5830 ng/mL and 4640 ng/mL and 9960 ng/mL and 12400 ng/mL and 16100 ng/mL and 11700 ng/mL and 5960 ng/mL. The “sEHI in blood and synovial fluid relative to dogs treated with EC1728” value ([4]; high dose group (5 mg/kg)) was roughly 10 ×, the “sEHI in blood and synovial fluid relative to dogs treated with EC1728” value ([4]; low dose group (1 mg/kg)) was “approximately 2 ×” and the “health case noted during treatment: relation to treatment” value ([5]; EC3039 1 mg/kg, individual dogs, 1 mg/kg) was “EC3039 – 1mg/kg / Not Related; also recorded: EC3039 – 1mg/kg / Unlikely Related”. The “health case noted during treatment: relation to treatment” value ([5]; EC3039 5 mg/kg, individual dog, moist dermatitis of ventral neck) was “EC3039 – 5mg/kg / Not Related” and the melting point was 92.4 to 94.7 °C.
